Target: T1, Polyphenol oxidase 2 (Agaricus bisporus, UniProt O42713)
T1 sequence (O42713 whole entry): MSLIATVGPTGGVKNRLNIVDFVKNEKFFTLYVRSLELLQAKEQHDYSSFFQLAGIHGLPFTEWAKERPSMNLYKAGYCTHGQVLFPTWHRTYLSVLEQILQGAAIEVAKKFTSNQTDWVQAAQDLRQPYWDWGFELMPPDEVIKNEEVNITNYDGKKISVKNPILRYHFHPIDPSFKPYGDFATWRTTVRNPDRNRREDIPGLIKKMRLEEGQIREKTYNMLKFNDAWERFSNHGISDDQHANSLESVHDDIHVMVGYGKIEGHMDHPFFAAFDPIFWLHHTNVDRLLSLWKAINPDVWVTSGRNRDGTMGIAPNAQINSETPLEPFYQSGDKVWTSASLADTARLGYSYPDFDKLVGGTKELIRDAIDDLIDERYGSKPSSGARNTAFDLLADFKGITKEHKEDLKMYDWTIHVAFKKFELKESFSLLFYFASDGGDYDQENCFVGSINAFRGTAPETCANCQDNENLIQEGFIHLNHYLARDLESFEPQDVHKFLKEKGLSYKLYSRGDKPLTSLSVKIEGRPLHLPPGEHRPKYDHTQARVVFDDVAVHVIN
Assay: Inhibition of mushroom tyrosinase

Row | SMILES | IC50
1 | COC(=O)C1C2=Nc3ccccc3[C@]23CCN2C[C@@H](C(C)=O)[C@H]1C[C@@H]23 (stereo not given in full) [Alpneumine E] | > 100 µM
2 | COC(=O)C1C2=Nc3ccccc3[C@]23CC[N+]2([O-])C[C@H](C(C)=O)[C@H]1C[C@H]32 (stereo not given in full) [Alpneumine C] | > 100 µM
3 | COC(=O)C1C2=Nc3c(O)cccc3[C@]23CCN2C[C@@H](C(C)=O)[C@H]1C[C@@H]23 (stereo not given in full) [Alpneumine D] | > 100 µM
4 | COC(=O)C1C2=Nc3c(O)cccc3[C@]23CC[N+]2([O-])C[C@H](C(C)=O)[C@H]1C[C@H]32 (stereo not given in full) [Alpneumine A] | > 100 µM
5 | COC(=O)C1C2=Nc3c(O)cccc3[C@]23CCN2C[C@H](C(C)=O)[C@H]1C[C@@H]23 (stereo not given in full) [Alpneumine B] | > 100 µM
